Experimental data taken from patent publication US7238685B2, “Benzo-fused heterocycles as endothelin antagonists” (Actelion Pharmaceuticals Ltd., priority 2001, dated 2007).
Like-named read-outs stand apart in the source and are kept apart here.

Legend:
[1] = target: T1, rat aortic rings (ETA receptors) (Rattus norvegicus, UniProt P26684); assay: Inhibition of endothelin-1-induced contractions on isolated rat aortic rings
T1 construct: from tissue; host or cells: thoracic aorta rings of adult Wistar rats, endothelium removed
T1 sequence (P26684 21-426): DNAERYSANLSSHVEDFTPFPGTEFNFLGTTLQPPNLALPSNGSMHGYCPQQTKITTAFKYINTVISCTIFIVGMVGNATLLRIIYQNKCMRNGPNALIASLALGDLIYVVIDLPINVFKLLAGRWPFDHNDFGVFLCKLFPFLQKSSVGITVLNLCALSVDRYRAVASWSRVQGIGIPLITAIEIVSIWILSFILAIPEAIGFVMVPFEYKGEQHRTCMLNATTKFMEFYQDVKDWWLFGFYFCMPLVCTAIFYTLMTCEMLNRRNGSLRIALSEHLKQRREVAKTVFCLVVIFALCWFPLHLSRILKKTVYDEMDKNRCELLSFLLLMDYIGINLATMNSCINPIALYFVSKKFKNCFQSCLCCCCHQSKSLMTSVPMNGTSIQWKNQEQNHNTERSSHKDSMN

[2] = target: T2, rat tracheal rings (ETB receptors) (Rattus norvegicus, UniProt P21451); assay: Inhibition of sarafotoxin S6c-induced contractions on isolated rat tracheal rings
T2 construct: from tissue; host or cells: tracheal rings of adult Wistar rats, epithelium removed
T2 sequence (P21451 27-442): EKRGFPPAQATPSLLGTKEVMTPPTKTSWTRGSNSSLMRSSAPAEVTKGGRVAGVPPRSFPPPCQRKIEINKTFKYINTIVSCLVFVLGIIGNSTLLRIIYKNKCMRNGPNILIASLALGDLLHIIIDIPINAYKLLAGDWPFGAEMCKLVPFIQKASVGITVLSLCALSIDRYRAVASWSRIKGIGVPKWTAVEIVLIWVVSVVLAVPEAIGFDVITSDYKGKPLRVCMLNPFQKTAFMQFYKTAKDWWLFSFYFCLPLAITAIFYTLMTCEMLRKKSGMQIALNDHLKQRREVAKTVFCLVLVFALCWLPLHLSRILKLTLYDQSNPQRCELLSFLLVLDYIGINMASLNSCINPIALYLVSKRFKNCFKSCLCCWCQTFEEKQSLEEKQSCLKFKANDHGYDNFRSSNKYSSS
Method: 2) Inhibition of Endothelin-induced Contractions on Isolated Rat Aortic Rings (ETA Receptors) and Rat Tracheal Rings (ETB Receptors):
The functional inhibitory potency of the endothelin antagonists was assessed by their inhibition of the contraction induced by endothelin-1 on rat aortic rings (ETA receptors) and of the contraction induced by sarafotoxin S6c on rat tracheal rings (ETB receptors). Adult Wistar rats were anesthetized and exsanguinated. The thoracic aorta or trachea were excised, dissected and cut in 3–5 mm rings. The endothelium/epithelium was removed by gentle rubbing of the intimal surface. Each ring was suspended in a 10 ml isolated organ bath filled with Krebs-Henseleit solution (in mM; NaCl 115, KCl 4.7, MgSO4 1.2, KH2PO4 1.5, NaHCO3 25, CaCl2 2.5, glucose 10) kept at 37° C. and gassed with 95% O2 and 5% CO2. The rings were connected to force transducers and isometric tension was recorded (EMKA Technologies SA, Paris, France). The rings were stretched to a resting tension of 3 g (aorta) or 2 g (trachea). […] The functional inhibitory potency of the test compound was assessed by calculating the concentration ratio, i.e. the shift to the right of the EC50 induced by different concentrations of test compound. EC50 is the concentration of endothelin needed to get a half-maximal contraction, pA2 is the negative logarithm of the antagonist concentration which induces a two-fold shift in the EC50 value.

[3] = target: T3, human recombinant ETA receptors (Homo sapiens, UniProt P25101); assay: Inhibition of endothelin binding to membranes from CHO cells carrying human ET receptors (ETA); conditions: read-out: IC50 ETA
T3 construct: expressed in transfected cells; host or cells: CHO cells (microsomal membranes)
T3 sequence (P25101 21-427): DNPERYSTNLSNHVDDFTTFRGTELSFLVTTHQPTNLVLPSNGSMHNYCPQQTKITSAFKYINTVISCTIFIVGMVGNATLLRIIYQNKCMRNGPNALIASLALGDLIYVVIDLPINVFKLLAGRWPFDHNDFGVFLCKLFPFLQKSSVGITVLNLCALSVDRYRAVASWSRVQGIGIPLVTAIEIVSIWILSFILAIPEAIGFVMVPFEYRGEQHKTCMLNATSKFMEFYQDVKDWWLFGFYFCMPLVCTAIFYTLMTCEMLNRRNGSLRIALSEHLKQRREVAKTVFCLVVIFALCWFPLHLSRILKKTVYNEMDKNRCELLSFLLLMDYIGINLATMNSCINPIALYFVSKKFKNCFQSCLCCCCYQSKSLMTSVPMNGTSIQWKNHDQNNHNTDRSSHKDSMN

[4] = target: T4, human recombinant ETB receptors (Homo sapiens, UniProt P24530); assay: Inhibition of endothelin binding to membranes from CHO cells carrying human ET receptors (ETB); conditions: read-out: IC50 ETB
T4 construct: expressed in transfected cells; host or cells: CHO cells (microsomal membranes)
T4 sequence (P24530 27-442): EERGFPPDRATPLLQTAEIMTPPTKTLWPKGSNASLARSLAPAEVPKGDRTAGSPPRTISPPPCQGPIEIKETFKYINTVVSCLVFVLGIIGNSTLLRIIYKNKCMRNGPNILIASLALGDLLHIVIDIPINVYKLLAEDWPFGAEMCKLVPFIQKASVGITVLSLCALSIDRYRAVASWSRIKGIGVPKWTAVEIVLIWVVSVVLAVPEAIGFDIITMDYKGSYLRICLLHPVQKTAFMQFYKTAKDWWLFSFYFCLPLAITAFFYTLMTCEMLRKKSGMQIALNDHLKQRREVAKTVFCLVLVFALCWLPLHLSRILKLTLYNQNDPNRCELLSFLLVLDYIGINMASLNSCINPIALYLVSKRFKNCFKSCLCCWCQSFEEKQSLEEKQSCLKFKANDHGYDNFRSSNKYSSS

Compound: COc1cc(OC)nc(O[C@H](C(=O)O)[C@@]2(c3ccccc3)NCC(=O)N(Cc3c(F)cc(F)cc3F)c3ccccc32)n1 (racemic) [Example 48]
- Kb ([1]; read-out: pA2 (aortic rings) (converted)): 6.46 nM
- Kb [2]: 525 nM

Compound: Cc1cc(C)nc(O[C@H](C(=O)O)[C@@]2(c3ccccc3)NCC(=O)N(Cc3c(F)cc(F)cc3F)c3ccccc32)n1 (racemic) [Example 107, (±)-(S*)-(4,6-dimethyl-pyrimidin-2-yloxy)-[(5S*)-2-oxo-5-phenyl-1-(2,4,6-trifluoro-benzyl)-2,3,4,5-tetrahydro-1H-benzo[e][1,4]diazepin-5-yl]-acetic acid]
- IC50 [3]: 1 nM
- Kb [1]: 6.61 nM
- Kb [2]: 661 nM
- IC50 [4]: 42 nM

Compound: Cc1cc(C)nc(O[C@H](C(=O)O)[C@@]2(c3ccccc3)NCC(=O)N(Cc3c(Cl)cccc3Cl)c3ccccc32)n1 (racemic) [Example 115]
- IC50 [3]: 1 nM
- Kb [1]: 2.82 nM
- Kb [2]: 27.5 nM
- IC50 [4]: 3 nM

Compound: Cc1cc(C)nc(O[C@H](C(=O)O)[C@@]2(c3cccc(-c4ccccc4)c3)NCC(=O)N(Cc3c(F)cc(F)cc3F)c3ccccc32)n1 (racemic) [Example 211, (±)-(S*)-[(5S*)-5-biphenyl-3-yl-2-oxo-1-(2,4,6-trifluoro-benzyl)-2,3,4,5-tetrahydro-1H-benzo[e][1,4]di-azepin-5-yl]-(4,6-dimethyl-pyrimidin-2-yloxy)-acetic acid]
- IC50 [3]: 6 nM
- Kb [1]: 0.912 nM
- Kb [2]: 85.1 nM
- IC50 [4]: 62 nM
